PubChem BioAssay AID1259246 (Broad Institute, 2017)
Inconclusive results are not listed. Calls of active or inactive are those of the source.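 How the source made its calls: active means valid dose-response fit whose half-maximal growth-inhibiting concentration is at or below a set limit above the top tested dose; inconclusive means flat fit with effect between 30 and 70%, or poor fit; inactive means half-maximal concentration above a set limit.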

Assay: antibacterial activity against Clostridioides difficile – 10-point retest, dose response (AID 1259246)
Conditions: Clostridioides difficile clinical isolate growth, OD600, 24 h

| SMILES | activity change, negative = inhibition (at 120 µM (top of the series)) | other results |
| --- | --- | --- |
| C[C@H]1CCCCO[C@H](CN(C)Cc2ccccc2)[C@@H](C)CN([C@@H](C)CO)C(=O)c2cc(NC(=O)Nc3ccc(C(F)(F)F)cc3)ccc2O1 |  | activity change, negative = inhibition (at 60 µM (top of the series)): 3.08% (inactive) |
| C[C@@H]1CN([C@@H](C)CO)C(=O)Cc2cc(N(C)C)ccc2O[C@@H]1CN(C)Cc1ccc(-c2ccccc2)cc1 | 30.2% (inactive) |  |
| Cc1ccc(S(=O)(=O)N[C@H]2CC[C@@H](CCNS(=O)(=O)Cc3ccccc3)O[C@H]2CO)cc1 |  | activity change, negative = inhibition (at 135 µM (top of the series)): 3.07% (inactive) |
| C[C@H](CO)N1C[C@H](C)[C@@H](CN(C)C(=O)Cc2cccnc2)Oc2cc(C#Cc3ccccc3F)ccc2S1(=O)=O | 40.8% (inactive) |  |
| C[C@@H]1CN([C@@H](C)CO)S(=O)(=O)c2ccc(C#CC3CCCCC3)cc2O[C@H]1CN(C)Cc1cccnc1 | 17.6% (inactive) |  |
| C[C@@H]1CN([C@H](C)CO)C(=O)Cc2cc(NC(=O)C3CC3)ccc2O[C@H]1CN(C)Cc1ccc(Oc2ccccc2)cc1 | 20.2% (inactive) |  |
| C[C@@H]1CN([C@H](C)CO)S(=O)(=O)c2ccc(C#CC3CCCCC3)cc2O[C@H]1CN(C)Cc1cccnc1 | 18.8% (inactive) |  |
| CNC[C@H]1Oc2ccc(NC(=O)C3CC3)cc2CC(=O)N([C@@H](C)CO)C[C@H]1C |  | activity change, negative = inhibition (at 135 µM (top of the series)): -0.275% (inactive) |
| C[C@H](CO)N1C[C@H](C)[C@@H](CN(C)C(=O)Nc2ccc(C(F)(F)F)cc2)Oc2c(NC(=O)Nc3cccc4ccccc34)cccc2C1=O | 36.8% (inactive) |  |
| COc1ccc(CN2C[C@@H](C)[C@H](OC)CN(C)C(=O)c3ccc(NC(=O)c4nc5ccccc5s4)cc3OC[C@H]2C)cc1 | 22.7% (inactive) |  |
| CO[C@H]1CN(C)C(=O)c2cc(NC(=O)c3nc4ccccc4s3)ccc2OC[C@H](C)N(Cc2ccncc2)C[C@H]1C |  | activity change, negative = inhibition (at 135 µM (top of the series)): 20.9% (inactive) |
| N#C[C@@H]1[C@@H](c2ccc(C#Cc3ccccc3F)cc2)[C@H](CO)N1C(=O)C1CCCCC1 |  | activity change, negative = inhibition (at 60 µM (top of the series)): 9.57% (inactive) |
| CNC[C@@H]1Oc2cc(-c3ccc(C)cc3)ccc2S(=O)(=O)N([C@@H](C)CO)C[C@H]1C | 10.7% (inactive) |  |
| C/C=C/c1ccc2c(c1)O[C@H](CN(C)CC1CCOCC1)[C@H](C)CN([C@@H](C)CO)S2(=O)=O | -1.64% (inactive) |  |
| COc1ccc(CN(C)C[C@@H]2OCCCC[C@@H](C)Oc3ccc(NC(=O)Nc4cccc5ccccc45)cc3C(=O)N([C@H](C)CO)C[C@H]2C)cc1 | 44.3% (inactive) |  |
| CC(C)CC#Cc1ccc2c(c1)O[C@H](CN(C)Cc1ccc3c(c1)OCO3)[C@H](C)CN([C@@H](C)CO)S2(=O)=O | 26.5% (inactive) |  |
| C[C@@H]1CN([C@H](C)CO)C(=O)c2cc(NC(=O)Nc3ccc(F)cc3)ccc2O[C@@H](C)CCCCO[C@H]1CN(C)C(=O)c1ccccc1 | 41% (inactive) |  |
| Cc1noc(C)c1NC(=O)Nc1cccc2c1O[C@H](CN(C)Cc1ccc(Cl)c(Cl)c1)[C@H](C)CN([C@@H](C)CO)C2=O | 28.7% (inactive) |  |
| COc1ccc(CN2C[C@H](C)[C@@H](OC)CN(C)C(=O)c3ccc(NC(=O)c4nc5ccccc5s4)cc3OC[C@@H]2C)cc1 | 9.23% (inactive) |  |
| C[C@@H]1CN([C@@H](C)CO)C(=O)Cc2cc(NC(=O)C3CC3)ccc2O[C@@H]1CN(C)Cc1ccc(Oc2ccccc2)cc1 | 21.3% (inactive) |  |

| SMILES | activity change, negative = inhibition (at 120 µM (top of the series)) | other results |
| --- | --- | --- |
| COCC#Cc1ccc2c(c1)O[C@H](CN(C)Cc1ccc3c(c1)OCO3)[C@H](C)CN([C@@H](C)CO)S2(=O)=O |  | activity change, negative = inhibition (at 60 µM (top of the series)): 6.47% (inactive) |
| COc1ccc(S(=O)(=O)N(C)C[C@@H]2Oc3ccc(NC(=O)CCCN(C)C)cc3CC(=O)N([C@H](C)CO)C[C@H]2C)cc1 |  | activity change, negative = inhibition (at 135 µM (top of the series)): -7.92% (inactive) |
| O=C(C[C@@H]1C[C@@H]2c3cc(NC(=O)C4CCC4)ccc3O[C@@H]2[C@H](CO)O1)NCc1ccc(Cl)cc1 | -2.36% (inactive) |  |
| C[C@@H]1CN([C@@H](C)CO)C(=O)Cc2cc(N(C)C)ccc2O[C@@H]1CN(C)Cc1ccc(Oc2ccccc2)cc1 | 12.4% (inactive) |  |
| COc1ccc(NC(=O)Nc2cccc3c2O[C@@H](CN(C)C(=O)NC2CCCCC2)[C@H](C)CN([C@H](C)CO)C3=O)cc1 | 1.64% (inactive) |  |
| COc1ccc(CN(C)C[C@H]2Oc3ccc(NC(=O)C4CC4)cc3CC(=O)N([C@@H](C)CO)C[C@H]2C)cc1 | -3.18% (inactive) |  |
| O=C(C[C@H]1C[C@@H]2c3cc(NC(=O)NC4CCCC4)ccc3O[C@@H]2[C@@H](CO)O1)NCc1ccc(Cl)cc1 | 8.51% (inactive) |  |
| C[C@@H]1CN([C@H](C)CO)C(=O)Cc2cc(N(C)C)ccc2O[C@@H]1CN(C)Cc1ccc(Oc2ccccc2)cc1 |  | activity change, negative = inhibition (at 135 µM (top of the series)): 23.7% (inactive) |
| O=C(C[C@H]1C[C@H]2c3cc(NC(=O)Nc4ccccc4)ccc3O[C@H]2[C@H](CO)O1)NC1CCCC1 | -1.4% (inactive) |  |
| C[C@@H]1CN([C@H](C)CO)C(=O)Cc2cc(NC(=O)C3CC3)ccc2O[C@H]1CN(C)Cc1ccc(-c2ccccc2)cc1 | 18.8% (inactive) |  |
| CNC[C@H]1Oc2cc(C#CCC(C)C)ccc2S(=O)(=O)N([C@H](C)CO)C[C@@H]1C | 19.7% (inactive) |  |
| O=C(C[C@@H]1C[C@@H]2c3cc(NC(=O)Nc4ccccc4)ccc3O[C@@H]2[C@@H](CO)O1)NC1CCCC1 | 2.79% (inactive) |  |
| COc1ccccc1C#Cc1ccc([C@H]2[C@@H](CO)N(C(=O)C3CCCCC3)[C@H]2C#N)cc1 |  | activity change, negative = inhibition (at 60 µM (top of the series)): 2.35% (inactive) |
| CC(C)CC#Cc1ccc2c(c1)O[C@@H](CN(C)Cc1ccc3c(c1)OCO3)[C@@H](C)CN([C@H](C)CO)S2(=O)=O | 23.6% (inactive) |  |
| COc1ccc(CN(C)C[C@H]2Oc3ccc(NC(=O)C4CC4)cc3CC(=O)N([C@H](C)CO)C[C@H]2C)cc1 |  | activity change, negative = inhibition (at 135 µM (top of the series)): 0.998% (inactive) |
| C/C=C/c1ccc2c(c1)O[C@H](CN(C)CC1CCOCC1)[C@H](C)CN([C@H](C)CO)S2(=O)=O | -5.69% (inactive) |  |
| CO[C@@H]1CN(C)C(=O)c2ccc(NC(=O)c3nc4ccccc4s3)cc2OC[C@@H](C)N(Cc2ccncc2)C[C@@H]1C | 14.1% (inactive) |  |
| CO[C@H]1CN(C)C(=O)c2ccc(NC(=O)c3ccc(-c4ccccc4)cc3)cc2OC[C@@H](C)NC[C@@H]1C |  | activity change, negative = inhibition (at 60 µM (top of the series)): 12.9% (inactive) |
| CO[C@@H]1CN(C)C(=O)c2cc(NC(=O)c3ccc(-c4ccccc4)cc3)ccc2OC[C@H](C)NC[C@H]1C | 9.68% (inactive) |  |
| C[C@@H]1CN([C@H](C)CO)S(=O)(=O)c2ccc(C#CCN(C)C)cc2O[C@@H]1CN(C)Cc1ccc(F)cc1 | 0.874% (inactive) |  |

| SMILES | activity change, negative = inhibition (at 120 µM (top of the series)) | other results |
| --- | --- | --- |
| CO[C@@H]1CN(C)C(=O)c2cc(NC(=O)c3ccc(-c4ccccc4)cc3)ccc2OC[C@H](C)NC[C@@H]1C | 31.8% (inactive) |  |
| C[C@@H]1CN([C@@H](C)CO)C(=O)Cc2cc(NC(=O)C3CC3)ccc2O[C@H]1CN(C)Cc1ccc(Oc2ccccc2)cc1 |  | activity change, negative = inhibition (at 135 µM (top of the series)): 48% (inactive) |
| C[C@H]1CN([C@@H](C)CO)C(=O)Cc2cc(NC(=O)C3CC3)ccc2O[C@H]1CN(C)Cc1ccc(Oc2ccccc2)cc1 |  | activity change, negative = inhibition (at 135 µM (top of the series)): 26.6% (inactive) |
| CNC[C@H]1Oc2ccc(N)cc2CC(=O)N([C@@H](C)CO)C[C@H]1C | -3.55% (inactive) |  |
| COc1ccc(NC(=O)Nc2cccc3c2O[C@@H](CN(C)Cc2ccc(Oc4ccccc4)cc2)[C@@H](C)CN([C@H](C)CO)C3=O)cc1 | 38.3% (inactive) |  |
| C[C@H](CO)N1C[C@H](C)[C@@H](CN(C)C(=O)c2ccccc2)OCCCC[C@H](C)Oc2ccc(NC(=O)Nc3cccc4ccccc34)cc2C1=O | 37.5% (inactive) |  |
| C[C@H](CO)N1C[C@H](C)[C@@H](CN(C)Cc2ccc(-c3ccccc3)cc2)Oc2ccc(NC(=O)C3CC3)cc2CC1=O | 25.6% (inactive) |  |
| O=C(C[C@@H]1CC[C@H]2[C@@H](COC[C@H](O)CN2S(=O)(=O)c2ccc(Cl)cc2)O1)NCc1ccc(Cl)c(Cl)c1 |  | activity change, negative = inhibition (at 110 µM (top of the series)): 55.9% (inactive) |
| COCC#Cc1ccc2c(c1)O[C@H](CN(C)Cc1ccc3c(c1)OCO3)[C@H](C)CN([C@H](C)CO)S2(=O)=O |  | activity change, negative = inhibition (at 60 µM (top of the series)): 10.3% (inactive) |
| COc1ccc(NC(=O)N(C)C[C@@H]2Oc3ccc(NC(=O)CCCN(C)C)cc3CC(=O)N([C@H](C)CO)C[C@H]2C)cc1 |  | activity change, negative = inhibition (at 135 µM (top of the series)): 1.15% (inactive) |
| C[C@H](CO)N1C[C@H](C)[C@H](CN(C)Cc2ccc(Oc3ccccc3)cc2)Oc2ccc(NC(=O)CCCN(C)C)cc2CC1=O |  | activity change, negative = inhibition (at 135 µM (top of the series)): 34.3% (inactive) |
| C[C@@H]1CN([C@@H](C)CO)C(=O)c2cccc(NC(=O)Nc3ccc4c(c3)OCO4)c2O[C@@H]1CN(C)C(=O)Nc1cccc2ccccc12 | 6.09% (inactive) |  |
| COc1ccccc1CNC(=O)C[C@H]1C[C@@H]2c3cc(NC(=O)NC4CCCC4)ccc3O[C@@H]2[C@H](CO)O1 |  | activity change, negative = inhibition (at 135 µM (top of the series)): 4.13% (inactive) |
| C[C@H](CO)N1C[C@H](C)[C@@H](CN(C)Cc2ccc(Oc3ccccc3)cc2)Oc2ccc(NC(=O)C3CC3)cc2CC1=O | 33.9% (inactive) |  |
| C[C@@H]1CN([C@@H](C)CO)C(=O)Cc2cc(NC(=O)C3CC3)ccc2O[C@H]1CN(C)Cc1ccc(-c2ccccc2)cc1 | 25% (inactive) |  |
| C[C@@H]1CN([C@H](C)CO)C(=O)c2cccc(NC(=O)Nc3ccc(C(F)(F)F)cc3)c2O[C@@H]1CN(C)C(=O)NC1CCCCC1 | 7.85% (inactive) |  |
| CC(C)NC(=O)Nc1ccc2c(c1)CC(=O)N([C@@H](C)CO)C[C@@H](C)[C@@H](CN(C)Cc1ccc(-c3ccccc3)cc1)O2 | 25% (inactive) |  |
| CO[C@H]1CN(C)C(=O)c2ccc(NC(=O)c3ccc(-c4ccccc4)cc3)cc2OC[C@@H](C)NC[C@H]1C | 31.5% (inactive) |  |
| C[C@@H]1CN([C@H](C)CO)C(=O)c2cccc(NC(=O)Nc3ccc(C(F)(F)F)cc3)c2O[C@@H]1CN(C)S(=O)(=O)c1ccc(Cl)cc1 | 46.7% (inactive) |  |
